{"source": "patent US11370798B2", "about": "(Vertex Pharmaceuticals Incorporated, priority 2012, dated 2022)"}
{"system": "HCT116 colorectal cancer cells", "experiment": "Cisplatin sensitization assay (96 h cell viability MTS);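 further: Test-compound concentration that lowers the Cisplatin IC50 by a set fold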", "format": "cell-based", "settings": "compound and Cisplatin added simultaneously, Cisplatin sensitization value", "how_it_was_run": "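Viability read by MTS (1 h at 37° C) after 96 h co-exposure at 37° C, 5% CO2. Test compound and cisplatin were dosed simultaneously in a full concentration matrix, each 2-fold serially diluted from 10 μM final; sensitization values binned in μM.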"}
{"compound": "Nc1nn2cc(F)cnc2c1C(=O)Nc1cncc(C2CC2)c1N1CCN(C2COC2)CC1", "note": "[I-N-32, 2-amino-N-(5-cyclopropyl-4-(4-(oxetan-3-yl)piperazin-1-yl)pyridin-3-yl)-6-fluoropyrazolo[1,5-a]pyrimidine-3-carboxamide]", "Cisplatin Sensitization Assay": "++ (Cisplatin sensitization value>0.02 μM but <0.2 μM)"}
{"compound": "CN1CCN(c2ccncc2NC(=O)c2c(N)nn3cc(F)cnc23)CC12CCOCC2", "note": "[I-N-133, 2-amino-6-fluoro-N-(4-(1-methyl-9-oxa-1,4-diazaspiro[5.5]undecan-4-yl)pyridin-3-yl)pyrazolo[1,5-a]pyrimidine-3-carboxamide]", "Cisplatin Sensitization Assay": "++ (Cisplatin sensitization value>0.02 μM but <0.2 μM)"}
{"compound": "CC(=O)N1CCCC12CCN(c1ccncc1NC(=O)c1c(N)nn3cc(F)cnc13)CC2", "note": "[I-N-262, N-(4-(1-acetyl-1,8-diazaspiro[4.5]decan-8-yl)pyridin-3-yl)-2-amino-6-fluoropyrazolo[1,5-a]pyrimidine-3-carboxamide]", "Cisplatin Sensitization Assay": "+++ (Cisplatin sensitization value of <0.02 μM)"}
{"compound": "Cc1cncc(NC(=O)c2c(N)nn3cc(Cl)cnc23)c1N1CCN(C)CC1", "note": "[I-N-57, 2-amino-6-chloro-N-(5-methyl-4-(4-methylpiperazin-1-yl)pyridin-3-yl)pyrazolo[1,5-a]pyrimidine-3-carboxamide]", "Cisplatin Sensitization Assay": "+++ (Cisplatin sensitization value of <0.02 μM)"}
{"compound": "CN1CCN(c2c(C#N)cncc2NC(=O)c2c(N)nn3cc(F)cnc23)CC1", "note": "[I-N-113, 2-amino-N-(5-cyano-4-(4-methylpiperazin-1-yl)pyridin-3-yl)-6-fluoropyrazolo[1,5-a]pyrimidine-3-carboxamide]", "Cisplatin Sensitization Assay": "+ (Cisplatin sensitization value>0.2 μM but <5 μM)"}
{"compound": "CN(C)CCNC(=O)C1CCN(c2c(F)cncc2NC(=O)c2c(N)nn3cc(F)cnc23)CC1", "note": "[I-G-30, 2-amino-N-(4-(4-((2-(dimethylamino)ethyl)carbamoyl)piperidin-1-yl)-5-fluoropyridin-3-yl)-6-fluoropyrazolo[1,5-a]pyrimidine-3-carboxamide]", "Cisplatin Sensitization Assay": "+++ (Cisplatin sensitization value of <0.02 μM)"}
{"compound": "Nc1nn2cc(F)cnc2c1C(=O)Nc1cncc(F)c1N1CCN2C(=O)CC[C@@H]2C1", "note": "[I-N-182, (R)-2-amino-6-fluoro-N-(5-fluoro-4-(6-oxohexahydropyrrolo[1,2-a]pyrazin-2(1H)-yl)pyridin-3-yl)pyrazolo[1,5-a]pyrimidine-3-carboxamide]", "Cisplatin Sensitization Assay": "++ (Cisplatin sensitization value>0.02 μM but <0.2 μM)"}
{"compound": "CN1CCN(C(=O)C2CCN(c3ccncc3NC(=O)c3c(N)nn4cc(F)cnc34)CC2)CC1", "note": "[I-G-1, 2-amino-6-fluoro-N-(4-(4-(4-methylpiperazine-1-carbonyl)piperidin-1-yl)pyridin-3-yl)pyrazolo[1,5-a]pyrimidine-3-carboxamide]", "Cisplatin Sensitization Assay": "+++ (Cisplatin sensitization value of <0.02 μM)"}
{"compound": "Nc1nn2cc(F)cnc2c1C(=O)Nc1cncc(Cl)c1N1CCC(O)C1", "note": "(centres unmarked) [I-N-284, 2-amino-N-(5-chloro-4-(3-hydroxypyrrolidin-1-yl)pyridin-3-yl)-6-fluoropyrazolo[1,5-a]pyrimidine-3-carboxamide]", "Cisplatin Sensitization Assay": "+++ (Cisplatin sensitization value of <0.02 μM)"}
{"compound": "Cn1ccc(-c2ccncc2NC(=O)c2c(N)nn3cc(F)cnc23)n1", "note": "[I-C-68, 2-amino-6-fluoro-N-(4-(1-methyl-1H-pyrazol-3-yl)pyridin-3-yl)pyrazolo[1,5-a]pyrimidine-3-carboxamide]", "Cisplatin Sensitization Assay": "+ (Cisplatin sensitization value>0.2 μM but <5 μM)"}
{"compound": "CN1CCN(C(=O)C2CCN(c3c(F)cncc3NC(=O)c3c(N)nn4cc(F)cnc34)CC2)C2CC21", "note": "(centres unmarked) [I-G-65, 2-amino-6-fluoro-N-(5-fluoro-4-(4-(5-methyl-2,5-diazabicyclo[4.1.0]heptane-2-carbonyl)piperidin-1-yl)pyridin-3-yl)pyrazolo[1,5-a]pyrimidine-3-carboxamide]", "Cisplatin Sensitization Assay": "+++ (Cisplatin sensitization value of <0.02 μM)"}
{"compound": "COc1ccncc1NC(=O)c1c(N)nn2cc(C(C)C#N)cnc12", "note": "(centres unmarked) [I-O-21, 2-amino-6-(1-cyanoethyl)-N-(4-methoxypyridin-3-yl)pyrazolo[1,5-a]pyrimidine-3-carboxamide]", "Cisplatin Sensitization Assay": "++ (Cisplatin sensitization value>0.02 μM but <0.2 μM)"}
{"compound": "Nc1nn2cc(F)cnc2c1C(=O)Nc1cncc(F)c1N1CCC(C(=O)O)CC1", "note": "[I-N-92, 1-(3-(2-amino-6-fluoropyrazolo[1,5-a]pyrimidine-3-carboxamido)-5-fluoropyridin-4-yl)piperidine-4-carboxylic acid]", "Cisplatin Sensitization Assay": "+ (Cisplatin sensitization value>0.2 μM but <5 μM)"}
{"compound": "Cc1nccn1-c1ccncc1NC(=O)c1c(N)nn2cc(F)cnc12", "note": "[I-N-28, 2-amino-6-fluoro-N-(4-(2-methyl-1H-imidazol-1-yl)pyridin-3-yl)pyrazolo[1,5-a]pyrimidine-3-carboxamide]", "Cisplatin Sensitization Assay": "+++ (Cisplatin sensitization value of <0.02 μM)"}
{"compound": "COC1CCN(c2ccncc2NC(=O)c2c(N)nn3cc(F)cnc23)CC1", "note": "[I-N-266, 2-amino-6-fluoro-N-(4-(4-methoxypiperidin-1-yl)pyridin-3-yl)pyrazolo[1,5-a]pyrimidine-3-carboxamide]", "Cisplatin Sensitization Assay": "+++ (Cisplatin sensitization value of <0.02 μM)"}
{"compound": "Nc1nn2cc(F)cnc2c1C(=O)Nc1cncc(F)c1N1CCC2(CC1)COC2", "note": "[I-N-239, 2-amino-6-fluoro-N-(5-fluoro-4-(2-oxa-7-azaspiro[3.5]nonan-7-yl)pyridin-3-yl)pyrazolo[1,5-a]pyrimidine-3-carboxamide]", "Cisplatin Sensitization Assay": "+++ (Cisplatin sensitization value of <0.02 μM)"}
{"compound": "Cc1cncc(NC(=O)c2c(N)nn3cc(F)cnc23)c1N1CCC(C(=O)N2CCN(C)CC2)CC1", "note": "[I-G-55, 2-amino-6-fluoro-N-(5-methyl-4-(4-(4-methylpiperazine-1-carbonyl)piperidin-1-yl)pyridin-3-yl)pyrazolo[1,5-a]pyrimidine-3-carboxamide]", "Cisplatin Sensitization Assay": "+++ (Cisplatin sensitization value of <0.02 μM)"}
{"compound": "Nc1nn2cc(F)cnc2c1C(=O)Nc1cncc(F)c1N1CCN(C(=O)C2CCN(C3COC3)CC2)CC1", "note": "[I-N-211, 2-amino-6-fluoro-N-(5-fluoro-4-(4-(1-(oxetan-3-yl)piperidine-4-carbonyl)piperazin-1-yl)pyridin-3-yl)pyrazolo[1,5-a]pyrimidine-3-carboxamide]", "Cisplatin Sensitization Assay": "++ (Cisplatin sensitization value>0.02 μM but <0.2 μM)"}
{"compound": "CN1CCN(CC2CCN(c3c(F)cncc3NC(=O)c3c(N)nn4cc(F)cnc34)CC2)C(=O)C1", "note": "[I-N-193, 2-amino-6-fluoro-N-(5-fluoro-4-(4-((4-methyl-2-oxopiperazin-1-yl)methyl)piperidin-1-yl)pyridin-3-yl)pyrazolo[1,5-a]pyrimidine-3-carboxamide]", "Cisplatin Sensitization Assay": "+++ (Cisplatin sensitization value of <0.02 μM)"}
{"compound": "Nc1nn2cc(Cl)cnc2c1C(=O)Nc1cncc(F)c1N1CCN(C2COC2)CC1", "note": "[I-N-117, 2-amino-6-chloro-N-(5-fluoro-4-(4-(oxetan-3-yl)piperazin-1-yl)pyridin-3-yl)pyrazolo[1,5-a]pyrimidine-3-carboxamide]", "Cisplatin Sensitization Assay": "+++ (Cisplatin sensitization value of <0.02 μM)"}
{"compound": "Nc1nn2cc(Cl)cnc2c1C(=O)Nc1cnccc1OC1CCCNC1", "note": "(centres unmarked) [I-O-75, 2-amino-6-chloro-N-(4-(piperidin-3-yloxy)pyridin-3-yl)pyrazolo[1,5-a]pyrimidine-3-carboxamide]", "Cisplatin Sensitization Assay": "++ (Cisplatin sensitization value>0.02 μM but <0.2 μM)"}
{"compound": "N#CCc1cnc2c(C(=O)Nc3cnccc3OCCN)c(N)nn2c1", "note": "[I-O-83, 2-amino-N-(4-(2-aminoethoxy)pyridin-3-yl)-6-(cyanomethyl)pyrazolo[1,5-a]pyrimidine-3-carboxamide]", "Cisplatin Sensitization Assay": "+++ (Cisplatin sensitization value of <0.02 μM)"}
{"compound": "Cc1nonc1N1CCN(c2ccncc2NC(=O)c2c(N)nn3cc(F)cnc23)CC1", "note": "[I-N-260, 2-amino-6-fluoro-N-(4-(4-(4-methyl-1,2,5-oxadiazol-3-yl)piperazin-1-yl)pyridin-3-yl)pyrazolo[1,5-a]pyrimidine-3-carboxamide]", "Cisplatin Sensitization Assay": "+++ (Cisplatin sensitization value of <0.02 μM)"}
{"compound": "CN1CCOC[C@@H]1c1ccc(-c2ccncc2NC(=O)c2c(N)nn3cc(F)cnc23)cc1", "note": "[I-C-66, (S)-2-amino-6-fluoro-N-(4-(4-(4-methylmorpholin-3-yl)phenyl)pyridin-3-yl)pyrazolo[1,5-a]pyrimidine-3-carboxamide]", "Cisplatin Sensitization Assay": "+++ (Cisplatin sensitization value of <0.02 μM)"}
{"compound": "Nc1nn2cc(F)cnc2c1C(=O)Nc1cncc(F)c1N1CCC(C(=O)N2CC(N3CCCCC3)C2)CC1", "note": "[I-G-57, 2-amino-6-fluoro-N-(5-fluoro-4-(4-(3-(piperidin-1-yl)azetidine-1-carbonyl)piperidin-1-yl)pyridin-3-yl)pyrazolo[1,5-a]pyrimidine-3-carboxamide]", "Cisplatin Sensitization Assay": "+++ (Cisplatin sensitization value of <0.02 μM)"}
{"compound": "Nc1nn2cc(F)cnc2c1C(=O)Nc1cnccc1-c1ccc(C(=O)N2CCN3CCC2CC3)cc1", "note": "[I-C-48, N-(4-(4-(1,4-diazabicyclo[3.2.2]nonane-4-carbonyl)phenyl)pyridin-3-yl)-2-amino-6-fluoropyrazolo[1,5-a]pyrimidine-3-carboxamide]", "Cisplatin Sensitization Assay": "+++ (Cisplatin sensitization value of <0.02 μM)"}
{"compound": "Nc1nn2cc(F)cnc2c1C(=O)Nc1cncc(F)c1N1CCN(C2COC2)CC1", "note": "[I-N-13, 2-amino-6-fluoro-N-(5-fluoro-4-(4-(oxetan-3-yl)piperazin-1-yl)pyridin-3-yl)pyrazolo[1,5-a]pyrimidine-3-carboxamide]", "Cisplatin Sensitization Assay": "+++ (Cisplatin sensitization value of <0.02 μM)"}
{"compound": "N#CC1CN(C(=O)C2CCN(c3c(F)cncc3NC(=O)c3c(N)nn4cc(F)cnc34)CC2)C1", "note": "[I-G-76, 2-amino-N-(4-(4-(3-cyanoazetidine-1-carbonyl)piperidin-1-yl)-5-fluoropyridin-3-yl)-6-fluoropyrazolo[1,5-a]pyrimidine-3-carboxamide]", "Cisplatin Sensitization Assay": "+++ (Cisplatin sensitization value of <0.02 μM)"}
{"compound": "CN(C)CCc1cnn(-c2ccncc2NC(=O)c2c(N)nn3cc(F)cnc23)c1", "note": "[I-N-9, 2-amino-N-(4-(4-(2-(dimethylamino)ethyl)-1H-pyrazol-1-yl)pyridin-3-yl)-6-fluoropyrazolo[1,5-a]pyrimidine-3-carboxamide]", "Cisplatin Sensitization Assay": "+ (Cisplatin sensitization value>0.2 μM but <5 μM)"}
